From patent publication US4192871A, “Chemical compounds” (Glaxo Laboratories Limited, priority 1976, dated 1980) come the findings set out here.

Structures can show the parent of a compound that is named as a salt.

The nature of one data set: pH of the salt solutions. It counts as physicochemical. Summed up:
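Aminoester free base mixed with 1 molar part acid in water, stirred or shaken, with extra acid or ethanol evaporation in some methods, then made up with water to set weight. Undissolved base collected and weighed to calculate dissolved base; solution membrane-filtered and pH measured.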

Data set [1] is described as follows: dissolution of the 11β-aminoester salts in aqueous acid (Table 5 and Examples 101, 225-229). Format: physicochemical. The gist of the method: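 11β-Aminoester free base combined with 1 molar part of acid (citric acid as monohydrate) in water, with extra acid or prior ethanol co-evaporation in some methods. Solution made up to set weight, undissolved base collected and weighed to calculate dissolved amount. Solution pH measured.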

Setting [2] is: aqueous solution of the salt, Table 5.
The mark [3] stands for this setting: method E: as C with further acid, WT. of solution Ex. 160: 6.12, 161: 7.8, 203: 12.7, 212: 12.125, 220: 10 g.
Setting [4] is: method C: ethanol evaporated, residue in water, undissolved material weighed, WT. of solution Ex. 118: 10, 120: 10.4, 148: 9.54, 152: 5.6, 154: 9.1, 155: 8.77, 156: 9.06, 157: 9.5, 158: 9.38, 159: 9.17, 179: 9.65, 180: 11.7, 182: 4.9, 202: 12.05, 213: 12, 214: 11.5, 215: 11.1, 216: 11.6, 217: 12.1 g.
The mark [5] stands for this setting: method D: 1 molar part acid, undissolved material weighed, WT. of solution 10 g, except Ex. 136: 8.95, 140: 9.52, 165 and 167: 10.1, 190 and 198: 9.8, 191: 8.9, 194: 6.6, 204: 10.09, 219: 10.6 g.
[6] abbreviates: method B: further acid added, undissolved material weighed, WT. of solution 10 g, except Ex. 130 and 141: 9.2, 142: 9.23, 143, 144, 189 and 199: 9.8, 149: 10.6, 153: 7.9, 162 and 188: 9.5, 163: 68, 166: 10.4, 168: 10.7, 169: 10.9, 183: 8.05, 184 and 201: 9.83, 185: 7.1, 186: 9.3, 192: 10.07, 193: 6.4, 195: 6.8, 196: 7, 197: 7.2, 200: 10.1, 206: 15 g.
Where [7] appears, read: method A: clear solution, 1 molar part acid, made up with water to WT. of solution 10 g, except Ex. 121 and 150: 12, 123: 12.3, 124: 7.5, 129: 10.3, 135 and 139: 8.95, 164: 10.35, 170: 10.4, 181: 10.04, 187: 9.5, 210: 10.2, 221: 15 g.

On to `CCCN(CCC)CC(=O)O[C@H]1C[C@]2(C)[C@@H](C(C)=O)CC[C@H]2[C@@H]2CC[C@H]3C[C@H](O)[C@@H](C)C[C@]3(C)[C@H]21` [Example 161], for which the pH in the data set “pH of the salt solutions” (setting [2]) was 2.8. Moreover, the Dissolved aminoester in data set [1] (setting [3]) is reported as 78 mg.

Take `CCCCN(C)C(C)C(=O)O[C@H]1C[C@]2(C)[C@@H](C(C)=O)CC[C@H]2[C@@H]2CC[C@H]3C[C@H](O)CC[C@]3(C)[C@H]21` (stereo partly shown) [Example 182]: the pH in the data set “pH of the salt solutions” (setting [2]) is recorded as 3.43. In data set [1] (setting [4]), the Dissolved aminoester was 49 mg.

In the case of `CCCCN(CC)CC(=O)O[C@H]1C[C@]2(C)[C@@H](C(C)=O)CC[C@H]2[C@@H]2CC[C@H]3C[C@H](O)CC[C@]3(C)[C@H]21.O=C(O)CC(O)(CC(=O)O)C(=O)O` [Example 222, 11β-(N-Butyl-N-ethylaminoacetoxy)-3α-hydroxy-5α-pregnan-20-one, citrate salt], the pH in the data set “pH of the salt solutions” (solution in 0.9% w/v saline, pH adjusted with sodium hydroxide solution, citrate salt) came to 3.97; in “pH of the salt solutions” (solution in 0.9% w/v saline, pH adjusted with sodium hydroxide solution, listed as Example 224, citrate salt) it was 4.00; in “pH of the salt solutions” (solution of the salt in saline, before any adjustment), 3.62. Further, the Dissolved aminoester in data set [1] (method A, 0.9% w/v saline in place of water, WT. of solution Ex. 122: 37.5 g, 222: 50 g) was 500 mg.

In the case of `CCN(CC(=O)O[C@H]1C[C@]2(C)[C@@H](C(C)=O)CC[C@H]2[C@@H]2CC[C@H]3C[C@H](O)CC[C@]3(C)[C@H]21)C(C)C` [Example 194], in “pH of the salt solutions” (setting [2]), the pH came to 3.56. In data set [1] (setting [5]), the Dissolved aminoester was found to be 57 mg.

Take `CCCCCCN(C)CC(=O)O[C@H]1C[C@]2(C)[C@@H](C(C)=O)CC[C@H]2[C@@H]2CC[C@H]3C[C@H](O)CC[C@]3(C)[C@H]21` [Example 189]: the pH in the data set “pH of the salt solutions” (setting [2]) amounted to 2.98. The Dissolved aminoester in data set [1] (setting [6]) was 93 mg.

As to `CCCN(CCC)CC(=O)O[C@H]1C[C@]2(C)[C@@H](C(C)=O)CCC[C@H]2[C@@H]2CC[C@H]3C[C@H](O)[C@@H](OCC)C[C@]3(C)[C@H]21` [Example 226 citrate salt], in “pH of the salt solutions” (aqueous solution of the citrate, filtered, 9.5-10 mg/ml), the pH is on record as 2.85. In addition, the “concentration of aqueous solution of the citrate” value in data set [1] (citric acid monohydrate in water, filtered solution) was 9500 µg/mL.

Take `CCN(CC)CC(=O)O[C@H]1C[C@]2(C)[C@@H](C(C)=O)CC[C@H]2[C@@H]2CC[C@H]3C[C@H](O)CC[C@]3(C)[C@H]21` [Example 152]: in “pH of the salt solutions” (setting [2]), the pH was 3.6. For the same compound, in data set [1] (setting [4]), the Dissolved aminoester is 55.95 mg.

Regarding `CCOC1CC2(C)C(CCC3C4CCC(C(C)=O)C4(C)CC(OC(=O)CNCCC(C)C)C32)CC1O` (stereo not shown) [Example 165], in the data set “pH of the salt solutions” (setting [2]), the pH is given as 3.68. Also, the Dissolved aminoester in data set [1] (setting [5]) worked out at 76.5 mg.

With `CC(=O)[C@H]1CC[C@H]2[C@@H]3CC[C@H]4C[C@H](O)CC[C@]4(C)[C@H]3[C@@H](OC(=O)CN(C(C)C)C(C)C)C[C@]12C` [Example 153], the pH in “pH of the salt solutions” (setting [2]) was 3.02. The Dissolved aminoester in data set [1] (setting [6]) is on record as 79 mg.

As to `CCCCCNCC(=O)O[C@H]1C[C@]2(C)[C@@H](C(C)=O)CC[C@H]2[C@@H]2CC[C@H]3C[C@H](O)CC[C@]3(C)[C@H]21` [Example 130], the pH in “pH of the salt solutions” (setting [2]) came to 3.12. Further, in data set [1] (setting [6]), the Dissolved aminoester worked out at 80 mg.

In the case of `CC(=O)C1C(C)CC2C3CCC4CC(O)CCC4(C)C3C(OC(=O)CN3CCC(C)CC3)CC21C` (stereo not shown) [Example 178], in “pH of the salt solutions” (setting [2]), the pH is 3.6. The Dissolved aminoester in data set [1] (setting [7]) is reported as 100 mg.

Take `CCCN(CCC)CC(=O)O[C@H]1C[C@]2(C)[C@@H](C(C)=O)CC[C@H]2[C@@H]2CC[C@H]3C[C@H](O)CC[C@]3(C)[C@H]21` [Example 154]: the pH in “pH of the salt solutions” (setting [2]) is 3.5. In addition, the Dissolved aminoester in data set [1] (setting [4]) worked out at 91 mg.

As to `CCCCOC1CC2(C)C(CCC3C4CCC(C(C)=O)C4(C)CC(OC(=O)CN4CCC(C)CC4)C32)CC1O` (stereo not shown) [Example 169], in the data set “pH of the salt solutions” (setting [2]), the pH was found to be 2.8. Besides, the Dissolved aminoester in data set [1] (setting [6]) came out at 80.5 mg.

As to `CC(=O)[C@H]1CC[C@H]2[C@@H]3CC[C@H]4C[C@](C)(O)CC[C@]4(C)[C@H]3[C@@H](OC(=O)CN3CCC(C)CC3)C[C@]12C` [Example 134], the pH in “pH of the salt solutions” (setting [2]) was 3.2. The Dissolved aminoester in data set [1] (setting [5]) was determined as 84 mg.

Take `CCCN(CCC)CC(=O)O[C@H]1C[C@]2(C)[C@@H](C(C)=O)CC[C@H]2[C@@H]2CC[C@H]3C[C@H](O)CC[C@]3(C)[C@H]21` [Example 215]: in the data set “pH of the salt solutions” (setting [2]), the pH is given as 3.63. Further, in data set [1] (setting [4]), the Dissolved aminoester is 111 mg.

Consider `CC(=O)[C@H]1CC[C@H]2[C@@H]3CC[C@H]4C[C@H](O)CC[C@]4(C)[C@H]3[C@@H](OC(=O)C(C)N3CCC(C)CC3)C[C@]12C` (stereo partly shown) [Example 179], for which, in the data set “pH of the salt solutions” (aqueous solution, pH adjusted with sodium hydroxide solution), the pH turned out to be 3.66. Also, the Dissolved aminoester in data set [1] (setting [4]) was 96.5 mg.

Take `CCC(C)N(CC(=O)O[C@H]1C[C@]2(C)[C@@H](C(C)=O)CC[C@H]2[C@@H]2CC[C@H]3C[C@H](O)CC[C@]3(C)[C@H]21)C(C)CC` (stereo partly shown) [Example 147]: in the data set “pH of the salt solutions” (setting [2]), the pH was 2.03. In data set [1] (setting [6]), the Dissolved aminoester is 85 mg.

Regarding `CCN(C)CC(=O)O[C@H]1C[C@]2(C)[C@@H](C(C)=O)CC[C@H]2[C@@H]2CC[C@H]3C[C@H](O)CC[C@]3(C)[C@H]21` [Example 116], the pH in the data set “pH of the salt solutions” (setting [2]) is 3.63. The Dissolved aminoester in data set [1] (setting [7]) turned out to be 100 mg.

Turning to `CC(=O)[C@H]1CC[C@H]2[C@@H]3CC[C@H]4C[C@H](O)CC[C@]4(C)[C@H]3[C@@H](OC(=O)CNCC(C)(C)C)C[C@]12C` [Example 142], the pH in “pH of the salt solutions” (setting [2]) turned out to be 3.12. Also, the Dissolved aminoester in data set [1] (setting [6]) was found to be 92.3 mg.

For the compound `CC(=O)[C@H]1CC[C@H]2[C@@H]3CC[C@H]4C[C@H](O)CC[C@]4(C)[C@H]3[C@@H](OC(=O)CCCN3CCC(C)CC3)C[C@]12C` [Example 181], in the data set “pH of the salt solutions” (setting [2]), the pH is on record as 3.72. The Dissolved aminoester in data set [1] (setting [7]) was determined as 101 mg.

For `CCN(CC)CC(=O)OC1CC2(C)C(C(=O)COC)CCC2C2CCC3CC(O)CCC3(C)C12` (stereo not shown) [Example 172], the pH in the data set “pH of the salt solutions” (setting [2]) is given as 3.2. Further, the Dissolved aminoester in data set [1] (setting [7]) is reported as 100 mg.

As for `CCCN(CCC)CC(=O)O[C@H]1C[C@]2(C)[C@@H](C(C)=O)CC[C@H]2[C@@H]2CC[C@H]3C[C@H](O)CC[C@]3(C)[C@H]21` [Example 212], the pH in “pH of the salt solutions” (setting [2]) was determined as 3.6. For the same compound, in data set [1] (setting [3]), the Dissolved aminoester is listed as 73 mg.

In the case of `CCCCN(C)CC(=O)O[C@H]1C[C@]2(C)[C@@H](C(C)=O)CC[C@H]2[C@@H]2CC[C@H]3C[C@H](O)[C@@H](OCC)C[C@]3(C)[C@H]21` [Example 121], in the data set “pH of the salt solutions” (setting [2]), the pH came to 3.65. Further, the Dissolved aminoester in data set [1] (setting [7]) was 120 mg.

With `CC(=O)[C@H]1CC[C@H]2[C@@H]3CC[C@H]4C[C@H](O)CC[C@]4(C)[C@H]3[C@@H](OC(=O)CN(C)C(C)C)C[C@]12C` [Example 183], the pH in the data set “pH of the salt solutions” (setting [2]) was found to be 2.69. For the same compound, the Dissolved aminoester in data set [1] (setting [6]) worked out at 57.5 mg.

Regarding `CCCO[C@H]1C[C@@]2(C)[C@@H](CC[C@@H]3[C@@H]2[C@@H](OC(=O)CN2CCC(C)CC2)C[C@]2(C)[C@@H](C(C)=O)CC[C@@H]32)C[C@@H]1O` [Example 149], in the data set “pH of the salt solutions” (setting [2]), the pH is recorded as 2.9. The Dissolved aminoester in data set [1] (setting [6]) is 106 mg.

Consider `CCN(CC)CC(=O)O[C@H]1C[C@]2(C)[C@@H](C(C)=O)CC[C@H]2[C@@H]2CC[C@H]3C[C@H](O)[C@@H](Br)C[C@]3(C)[C@H]21` [Example 208], for which, in “pH of the salt solutions” (setting [2]), the pH is 2.6. Further, in data set [1] (setting [6]), the Dissolved aminoester came out at 65 mg.

Regarding `CC(=O)[C@H]1CC[C@H]2[C@@H]3CC[C@H]4C[C@H](O)CC[C@]4(C)[C@H]3[C@@H](OC(=O)CN3CCC(C)CC3)C[C@]12C` [Example 158], in the data set “pH of the salt solutions” (setting [2]), the pH is recorded as 3.60. Besides, the Dissolved aminoester in data set [1] (setting [4]) is reported as 93.8 mg.

In the case of `CC(=O)[C@H]1CC[C@H]2[C@@H]3CC[C@H]4C[C@H](O)CC[C@]4(C)[C@H]3[C@@H](OC(=O)CNC3CCCCC3)C[C@]12C` [Example 138], the pH in “pH of the salt solutions” (setting [2]) is 3.10. In addition, the Dissolved aminoester in data set [1] (setting [7]) stood at 100 mg.
